The values that follow come from patent US11964990B2, “1,3,4,7-tetrahydro-2H-pyrrolo[3′,2′:5,6]pyrido[2,3-b][1,4]oxazepine bcl-2 inhibitors” (AbbVie Inc., priority 2022, dated 2024).

The subject of one experiment is Molt-4 cells. Nature of the experiment: Cell viability counter screen assay (CellTiter-Glo) in Molt-4 cells. The experiment is classed as cell-based. The settings on record: 24 hours, 10% Human Serum, 50% decrease in cell viability. The text has this:
(§1) The acute lymphoblastic leukemia (ALL) human cell line RS4;11 (ATCC, Manassas VA) was used as the primary human cell line to assess the cellular activity of compound of the present Examples in vitro and their efficacy in vivo. BH3 profiling, a mitochondrial assay that classifies blocks in the intrinsic apoptotic pathway, has shown that RS4;11 cells were highly dependent on Bcl-2 protein for survival and were sensitive to a Bcl-2 inhibitor (Blood. 2008; 111(4):2300-2309). […] The acute lymphoblastic leukemia cell line Molt-4, which is derived from immature T-lymphoid cells (T-ALL), was used as a counter screen assay.
(§2) Frozen RS4;11 or Molt-4 cells (ATCC, Manassas, VA, USA) were thawed overnight in RPMI 1640 media (Thermo Fisher Scientific, Waltham, MA, USA) supplemented with 1% penicillin/streptomycin (Thermo Fisher Scientific, Waltham, MA, USA), and 10% Human Serum (Sigma, St. Louis, MO, USA). 3000 Cells (0.1×10^6/mL) were seeded in each well of 384-well plate and were treated for 24 hours in a humidified chamber with 5% CO2. Cell viability was determined by CellTiter-Glo as described by the manufacturer's instructions (Promega Corporation, Madison, WI, USA). Responses were determined as a percentage of the control treated cells and the effective concentration (EC50) to induce a 50% decrease in cell viability were determined from sigmoidal dose-response curves using Dotmatics (Dotmatics Software Company, Bishops Stortford, Hertfordshire, England).
(A counterscreen serves to expose hits that act by an unwanted route or on another target.)

The test system of another experiment is RS4;11 cells. Nature of the experiment: Cell viability assay (CellTiter-Glo) in RS4;11 cell line. It is filed as cell-based. To be noted: 24 hours, 10% Human Serum, 50% decrease in cell viability.
Source text: as §1, §2
In general terms: Cellular ATP, detected with luciferase, serves as a proxy for viable cell number.

Regarding `CC1(C)CC(c2ccc(Cl)cc2)=C2CN3CCN(c4ccc(C(=O)NS(=O)(=O)c5ccc(NCC6(O)CCOCC6)c([N+](=O)[O-])c5)c(N5CCCOc6nc7[nH]ccc7cc65)c4)C[C@H]3COCCCO[C@@H]2C1` [Example 18, 4-((4aS,10aR)-14-(4-chlorophenyl)-12,12-dimethyl-1,2,4a,5,8,9,10a,11,13,15-decahydro-7H,12H-benzo[f]pyrazino[2,1-c][1,8]dioxa[4]azacycloundecin-3(4H)-yl)-2-(3,4-dihydro-2H-pyrrolo[3′,2′:5,6]pyrido[2,3-b][1,4]oxazepin-1(7H)-yl)-N-((4-(((4-hydroxytetrahydro-2H-pyran-4-yl)methyl)amino)-3-nitrophenyl)sulfonyl)benzamide], the figures for the EC50 with Molt-4 cells and in the experiment on RS4;11 cells were 426 nM and 1.43 nM, respectively.

On to `CC1(C)CC(c2ccc(Cl)cc2)=C2CN3CCN(c4ccc(C(=O)NS(=O)(=O)c5ccc(OCC6(F)CCN(C7COC7)CC6)c([N+](=O)[O-])c5)c(N5CCCOc6nc7[nH]ccc7cc65)c4)C[C@H]3COCCCO[C@@H]2C1` [Example 19, 4-((4aS,10aR)-14-(4-chlorophenyl)-12,12-dimethyl-1,2,4a,5,8,9,10a,11,13,15-decahydro-7H,12H-benzo[f]pyrazino[2,1-c][1,8]dioxa[4]azacycloundecin-3(4H)-yl)-2-(3,4-dihydro-2H-pyrrolo[3′,2′:5,6]pyrido[2,3-b][1,4]oxazepin-1(7H)-yl)-N-((4-((4-fluoro-1-(oxetan-3-yl)piperidin-4-yl)methoxy)-3-nitrophenyl)sulfonyl)benzamide], for which the EC50 was 132 nM in the experiment with Molt-4 cells and 0.881 nM in the experiment on RS4;11 cells.

In the case of `C[C@@H]1CO[C@@H](COc2ccc(S(=O)(=O)NC(=O)c3ccc(N4CCN5CC6=C(c7ccc(Cl)cc7)CC(C)(C)C[C@H]6OCCCOC[C@@H]5C4)cc3N3CCCOc4nc5[nH]ccc5cc43)cc2[N+](=O)[O-])CO1` [Example 20, 4-((4aS,10aR)-14-(4-chlorophenyl)-12,12-dimethyl-1,2,4a,5,8,9,10a,11,13,15-decahydro-7H,12H-benzo[f]pyrazino[2,1-c][1,8]dioxa[4]azacycloundecin-3(4H)-yl)-2-(3,4-dihydro-2H-pyrrolo[3′,2′:5,6]pyrido[2,3-b][1,4]oxazepin-1(7H)-yl)-N-((4-(((2R,5R)-5-methyl-1,4-dioxan-2-yl)methoxy)-3-nitrophenyl)sulfonyl)benzamide], the EC50 stood at 1610 nM with Molt-4 cells and 5.21 nM in the experiment with RS4;11 cells.

On to `C[C@@H]1CC[C@H](CNc2ccc(S(=O)(=O)NC(=O)c3ccc(N4CCN5CC6=C(c7ccc(Cl)cc7)CC(C)(C)C[C@H]6OCCCOC[C@@H]5C4)cc3N3CCCOc4nc5[nH]ccc5cc43)cc2[N+](=O)[O-])OC1` [Example 21, 4-((4aS,10aR)-14-(4-chlorophenyl)-12,12-dimethyl-1,2,4a,5,8,9,10a,11,13,15-decahydro-7H,12H-benzo[f]pyrazino[2,1-c][1,8]dioxa[4]azacycloundecin-3(4H)-yl)-2-(3,4-dihydro-2H-pyrrolo[3′,2′:5,6]pyrido[2,3-b][1,4]oxazepin-1(7H)-yl)-N-((4-((((2R,5R)-5-methyltetrahydro-2H-pyran-2-yl)methyl)amino)-3-nitrophenyl)sulfonyl)benzamide], for which the EC50 with Molt-4 cells amounted to 3280 nM; with RS4;11 cells, 4.89 nM.

Regarding `COCCN1CCC(F)(COc2ncc(S(=O)(=O)NC(=O)c3ccc(N4CCN5CC6=C(c7ccc(Cl)cc7)CC(C)(C)C[C@H]6OCCCOC[C@@H]5C4)cc3N3CCCOc4nc5[nH]ccc5cc43)cc2Cl)CC1` [Example 22, N-((5-chloro-6-((4-fluoro-1-(2-methoxyethyl)piperidin-4-yl)methoxy)pyridin-3-yl)sulfonyl)-4-((4aS,10aR)-14-(4-chlorophenyl)-12,12-dimethyl-1,2,4a,5,8,9,10a,11,13,15-decahydro-7H,12H-benzo[f]pyrazino[2,1-c][1,8]dioxa[4]azacycloundecin-3(4H)-yl)-2-(3,4-dihydro-2H-pyrrolo[3′,2′:5,6]pyrido[2,3-b][1,4]oxazepin-1(7H)-yl)benzamide], the EC50 with Molt-4 cells turned out to be 755 nM; in the experiment on RS4;11 cells, 2.78 nM.

Usually EC50 stands for the midpoint of the concentration-response curve. Higher therefore signals lower potency in that assay.
